Source: patent publication US20250281649A1, “PROBE DIRECTED TO ENZYME ALDH1A3 AND USE THEREOF IN THE DIAGNOSIS OF GLIOBLASTOMA” (Universita' Degli Studi Del Piemonte Orientale "A. Avogadro", priority 2021, published 2025)

Legend:
ALDH1A1 = molecular target: T1, ALDH1A1 (Homo sapiens, UniProt P00352); experiment: IC50 evaluation, NADH formation at 340 nm (Tecan SUNRISE); assay type: biochemical; conditions: ALDH1A1; 20 mM acetaldehyde, 500 μM NAD+, 15% DMSO, 2.7 μM isoenzyme; read-out: IC50
T1 construct: His-tag; made in house; host or cells: bacterial cells
T1 sequence (P00352 1-501): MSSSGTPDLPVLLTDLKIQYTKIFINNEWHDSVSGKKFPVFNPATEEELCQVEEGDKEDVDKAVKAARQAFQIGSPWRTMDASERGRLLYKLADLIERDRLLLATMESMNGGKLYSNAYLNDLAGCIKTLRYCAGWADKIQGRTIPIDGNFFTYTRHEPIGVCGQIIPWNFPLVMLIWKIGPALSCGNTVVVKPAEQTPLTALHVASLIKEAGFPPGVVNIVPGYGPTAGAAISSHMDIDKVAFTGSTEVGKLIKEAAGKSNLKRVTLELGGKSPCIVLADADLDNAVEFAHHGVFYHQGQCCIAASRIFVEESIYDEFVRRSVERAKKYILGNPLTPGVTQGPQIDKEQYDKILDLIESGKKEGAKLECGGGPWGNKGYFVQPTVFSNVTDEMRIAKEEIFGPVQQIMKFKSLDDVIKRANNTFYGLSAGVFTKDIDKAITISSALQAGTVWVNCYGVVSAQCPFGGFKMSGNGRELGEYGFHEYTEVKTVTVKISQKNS
Method: (§1) A common protocol to express and purify all three members of the ALDHIA subfamily has been optimized. Briefly, induced cells, collected by centrifugation, were re-suspended in an appropriate volume of lysis buffer (50 mM Na2HPO4, 300 mM NaCl, 1 mM β-mercaptoethanol, 20 mM imidazole, pH 7.5) added of benzonase nuclease (250 U/μL) and Protease inhibitor cocktail from SIGMA. After ultracentrifugation, the clarified sample was purified by a His-tag affinity chromatography followed by size-exclusion chromatography, using an AKTA FPLC system, at 4° C. To evaluate the purity and homogeneity of the protein, after each purification step, eluted d fractions were analyzed by SDS-PAGE and the protein quantification was always determined by Bradford protein assay.
(§2) IC50 evaluation: on a Tecan—SUNRISE, probe 13 was tested in a serial dilution series from 200 μM to 3, 125 μM, against all the three isoenzymes. The recipe of reaction buffer was: 20 mM Tris HCl pH=8, 150 mM KCl, 1 mM B-mercaptoethanol, 500 μM NAD^+, 15% DMSO fixed, 20 mM acetaldehyde and 2.7 μM each isoenzyme. The analysis was conducted measuring the NADH formation, that has a specific absorbance wavelength (340 nm). The test was performed in triplicate with all the three isoenzymes.

ALDH1A2 [1] = molecular target: T2, ALDH1A2 (Homo sapiens, UniProt O94788); experiment: as above; assay type: biochemical; conditions: 20 mM acetaldehyde, 500 μM NAD+, 15% DMSO, 2.7 μM isoenzyme, read-out: IC50
T2 construct: His-tag; made in house; host or cells: bacterial cells
T2 sequence (O94788 1-518): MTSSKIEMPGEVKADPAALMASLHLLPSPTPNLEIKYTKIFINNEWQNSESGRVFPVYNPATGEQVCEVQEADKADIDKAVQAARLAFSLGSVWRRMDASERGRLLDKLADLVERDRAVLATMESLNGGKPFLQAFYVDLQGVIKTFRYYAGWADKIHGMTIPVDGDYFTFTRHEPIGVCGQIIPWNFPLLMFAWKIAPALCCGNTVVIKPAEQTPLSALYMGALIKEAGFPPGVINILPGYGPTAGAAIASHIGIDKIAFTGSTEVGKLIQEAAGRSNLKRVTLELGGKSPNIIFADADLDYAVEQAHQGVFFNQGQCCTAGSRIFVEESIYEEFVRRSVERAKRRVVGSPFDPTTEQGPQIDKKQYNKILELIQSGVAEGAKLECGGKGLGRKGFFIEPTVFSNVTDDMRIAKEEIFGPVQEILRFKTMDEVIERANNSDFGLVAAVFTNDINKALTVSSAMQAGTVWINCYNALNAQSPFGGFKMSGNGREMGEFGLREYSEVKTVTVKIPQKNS
Method: as §1, §2

ALDH1A3 [2] = molecular target: T3, ALDH1A3 (Homo sapiens, UniProt P47895); experiment: as above; assay type: biochemical; conditions: ALDH1A3; 20 mM acetaldehyde, 500 μM NAD+, 15% DMSO, 2.7 μM isoenzyme; read-out: IC50
T3 construct: His-tag; made in house; host or cells: bacterial cells
T3 sequence (P47895 1-512): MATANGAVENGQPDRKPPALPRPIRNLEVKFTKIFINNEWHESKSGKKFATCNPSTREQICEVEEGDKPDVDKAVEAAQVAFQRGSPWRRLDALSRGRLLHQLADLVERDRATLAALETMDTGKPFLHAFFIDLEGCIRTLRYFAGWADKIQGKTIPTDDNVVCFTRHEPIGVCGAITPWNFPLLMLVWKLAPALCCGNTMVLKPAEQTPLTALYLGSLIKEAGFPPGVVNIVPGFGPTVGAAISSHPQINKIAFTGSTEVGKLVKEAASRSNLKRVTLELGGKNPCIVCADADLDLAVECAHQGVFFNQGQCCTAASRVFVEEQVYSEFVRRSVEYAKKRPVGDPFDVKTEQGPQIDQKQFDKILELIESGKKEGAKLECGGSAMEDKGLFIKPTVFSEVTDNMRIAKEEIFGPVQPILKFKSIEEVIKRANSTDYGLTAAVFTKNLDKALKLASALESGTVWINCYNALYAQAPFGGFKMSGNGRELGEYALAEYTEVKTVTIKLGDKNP
Method: as §1, §2

ALDH1A2 [3] = molecular target: T2, ALDH1A2; experiment: KD evaluation by probe fluorescence (Tecan SPARK); assay type: binding; conditions: probe fixed at 10 μM, isoenzyme 100 μM to 1 μM
Method: as §1
(§3) KD evaluation: on a Tecan—SPARK, probe 14 and 13 were tested at a fixed concentration of 10 μM. All the isoenzymes were tested in wide range of concentrations (from 100 μM to 1 μM). The analysis was settled with a BW of 20, monitoring the Em wavelength in range comprised between 520 and 535 nm for probe 14 and 520 and 580 nm for probe 13. The Ex was fixed at 420 nm for probe 14 and 440 nm for probe 13. The test was performed in quadruplicate with all the three isoenzymes. The recipe of the buffer reaction was the same as described before.

ALDH1A3 [4] = molecular target: T3, ALDH1A3; experiment: KD evaluation by probe fluorescence (Tecan SPARK); assay type: binding; conditions: ALDH1A3; probe fixed at 10 μM, isoenzyme 100 μM to 1 μM; read-out: KD
Method: as §1, §3

IC50 (ALDH1A1) [µM] | IC50 (ALDH1A2 [1]) [µM] | IC50 (ALDH1A3 [2]) [µM] | Kd (ALDH1A2 [3]) [µM] | Kd (ALDH1A3 [4]) [µM] | Compound
196 | 131 | 1.5 | 36.9 | 38.2 | COc1cc(/C=C/C(=O)/C=C(O)/C=C/c2ccc(OCc3cn(CCOc4ccc(C=O)cc4)nn3)c(OC)c2)ccc1O [Compound 13]
114 | 92.8 | 14.5 | 125 | 84.3 | CCOC(=O)Cn1cc(COc2ccc(/C=C/C(O)=C/C(=O)/C=C/c3ccc(O)c(OC)c3)cc2OC)nn1 [Compound 14]
